# Laboratory results: patent publication US6319955A, “Use of MEK1 inhibitors as protective agents against damage due to ischemia” (priority 2000, dated 2001)
# Key:
# [1] = compared with native tPA; cited from earlier work
# ERK1/2 [2] = assay: immunohistochemistry of phosphorylated ERK1/2 in brain slices after ischemia and reperfusion (PD98059 i.c.v.); assay type: in vivo, mouse (SV-129); conditions: 2 μl of 200 μM i.c.v. 30 min before ischemia; 120 min ischemia, 3 min reperfusion
# [3] = tested on: neurological deficits caused by ischemia; assay: neurological grading after 2 hours of MCA occlusion and reperfusion; assay type: in vivo, mouse (SV-129); conditions: three days after 2 hours MCA occlusion and reperfusion; mean±SEM; vehicle 2.2±0.3; P<0.05
# Method: Data are presented as mean ±SEM Data were analyzed by Student-t test or one-way ANOVA followed by Bonferroni's post hoc test.
# [4] = regional cerebral blood flow by Laser-Doppler flowmetry, PD98059; assay type: in vivo, mouse; conditions: 200 μM PD98059, n = 5, % of baseline, means ±SD
# From the text: Data are presented as means ±SD. Therefore, the decrease in ERK1/2 phosphorylation seen with PD98059 was not due to higher blood flow.
# [5] = mean arterial blood pressure, PD98059; assay type: in vivo, mouse
# Method: Mean arterial blood pressure (MABP) was determined in the presence or absence of 200 μM PD98059 10 minutes before and 1 hour after induction of ischemia, and 30 minutes after reperfusion under 1% halothane anesthesia (Table 2). Data are presented as means±SD. MABP was determined to be unaltered.
# [6] = arterial blood pH, pCO2 and pO2, PD98059; assay type: in vivo, mouse
# Method: Partial oxygen tension (pO2), partial carbon dioxide tension (pCO2), and blood pH were determined in the presence or absence of 200 μM PD98059, 1 hour after the induction of ischemia under 1% halothane anesthesia (Table 3).
# [7] = mouse, in vivo
# MEK1 = conditions: Favata et al., 1998, DeSilva et al.; cited from earlier work
# ERK1/2 [8] = conditions: 5 mM glutamate
# p38 MAP kinase = conditions: Cohen, Trends Cell Biol. 7:353, 1997; cited from earlier work
# SAPKs/JNKs = conditions: Cohen, Trends Cell Biol. 7:353, 1997; cited from earlier work
compound,measurement,setting,value
conjugation of tPA to polyethylene glycol: conjugation of tPA to polyethylene glycol,"clearance rate, in words",[1],reduce the clearance rate of tPA
"COc1cccc(-c2cc(=O)c3ccccc3o2)c1N [PD98059, 2-(2-amino-3-methoxyphenyl)-4-oxo-4H-[1]benzopyran]",phosphorylation of ERK1/2 in the middle cerebral artery territory,ERK1/2 [2],reduced
same,neurological grading,[3],0.71±0.29
same,RCBF (after MCA),"[4]; 30 min reperfusion, DMSO 102.5% ± 6.8",94.9% ± 8.9
same,RCBF (during MCA),[4]; DMSO 25.2% ± 5.7,15.9% ± 1.7
same,MABP (before),"[5]; 200 μM PD98059, n = 5, 10 minutes before ischemia, means±SD, DMSO 80.7 ± 7.5, in mmHg (unit assumed)",86.4 ± 10.9
same,MABP (after),"[5]; 200 μM PD98059, n = 5, 30 minutes after reperfusion, means±SD, DMSO 82.8 ± 13.5",86.0 ± 12.3
same,MABP (during),"[5]; 200 μM PD98059, n = 5, 1 hour after induction of ischemia, means±SD, DMSO 82.3 ± 2.1, in mmHg (unit assumed)",81.8 ± 4.1
same,"MABP, in words",[5]; 200 μM PD98059 vs DMSO,unaltered
same,blood pH,"[6]; 200 μM PD98059, n = 5, 1 hour after induction of ischemia, means ±SD, DMSO 7.32 ± 0.06",7.32 ± 0.07
same,PCO2,"[6]; 200 μM PD98059, n = 5, 1 hour after induction of ischemia, means ±SD, DMSO 48.8 ± 5.1, in mmHg (unit assumed)",49.9 ± 3.5
same,PO2,"[6]; 200 μM PD98059, n = 5, 1 hour after induction of ischemia, means ±SD, DMSO 155.3 ± 13.8, in mmHg (unit assumed)",139.1 ± 21.6
same,"pO2, pCO2, and blood pH, in words",[6]; 200 μM PD98059 vs DMSO,did not differ between the two groups
same,body temperature,[7],34.6±0.8 °C
same,temporal muscle temperature,[7],35.5±0.1 °C
same,cell injury,"HT22 cells; PD98059 50 μM, 9 hours after 5 mM glutamate",partially attenuated cell injury
same,protective effects,"HT22 cells; PD98059 50 μM, 24 hours after 5 mM glutamate",did not sustain for 24 hours
same,"inhibition of active / inactive MEK1, in words",MEK1,cannot efficiently inhibit MEK1 once it is activated
N[C@@H](CCC(=O)O)C(=O)O [glutamate],completion of cell injury after addition of glutamate,HT22 cells; 5 mM glutamate (FIG. 5A),up to 10 hours
same,onset of cell injury after addition of glutamate,HT22 cells; 5 mM glutamate (FIG. 5A),8 h
same,time of further increase of ERK1/2 phosphorylation after glutamate addition,ERK1/2 [8],7 to 8 h
C[S+]([O-])c1ccc(-c2nc(-c3ccncc3)c(-c3ccc(F)cc3)[nH]2)cc1 (centres unmarked) [SB203580],inhibitor of p38 MAP kinase (concentration),p38 MAP kinase,1 to 2 µM
same,inhibitor of SAPKs/JNKs (concentration),SAPKs/JNKs,> 10 µM
